We go through three compounds from patent US20220242851A1, “CRYSTAL FORM AND SALT OF QUINAZOLINE COMPOUND AND PREPARATION METHOD THEREOF” (SHENZHEN JINRUI FOUNDATION BIOTECH CO., LTD, priority 2019, published 2022).

Series [1] is described as follows: Solid stability assay (XRPD, HPLC). It counts as physicochemical. The protocol: Sample concentration: 0.5 mg/mL
According to influencing factor and accelerated assay conditions, about 5 mg of the crystal form B of the compound of formula (I) was accurately weighed and placed in a dry and clean glass bottle to form a thin layer as a formal assay sample in duplicate. The sample was placed under an influencing factor assay condition (60° C., 92.5% RH) and accelerated conditions (40° C./75% RH and 60° C./75% RH). The sample was fully exposed, and covered with aluminum foil paper punched with small holes. In addition, a small amount of sample was placed in a 40 mL glass sample bottle under the same conditions to determine the crystal state. The sample placed under light irradiation condition (1.2×10^6 Lux•hr/near ultraviolet 200 w•hr/m^2) was fully exposed at room temperature.

The test system of series [2] is subcutaneous xenograft tumor of human gastric cancer NCI-N87 cells. As to the kind of experiment: In vivo pharmacodynamics, NCI-N87 subcutaneous xenograft (Assay Example 4). Also noted: species or system mouse. To be noted: 0.5 mg/kg, compared with the vehicle control group. The procedure:
(§1) Purpose of the assay: in vivo efficacy of the assay compound disclosed herein on subcutaneous xenograft tumor of human gastric cancer NCI-N87 cells in a BALB/c nude mouse model was evaluated.
Animals of the assay: female BALB/c nude mice, 6-8 weeks old, weighted 18-22 grams; supplier: shanghai sippr bk laboratory animals Ltd.
Human gastric cancer NCI-N87 cells were cultured in monolayer in vitro. The culture conditions were RPMI-1640 medium plus 10% fetal bovine serum, 100 U/mL penicillin, 100 μg/mL streptomycin, 37° C., 5% CO2. The passaging was performed by conventional digestion with trypsin-EDTA twice a week. When the cell saturation was 80%-90%, the cells were collected, counted and inoculated.
0.2 mL (10×10^6) of NCI-N87 cells (PBS+Matrigel, 1:1) were inoculated subcutaneously on the right back of each mouse. […]
The assay index was to investigate whether tumor growth is inhibited, delayed or cured. Tumor diameter was measured twice a week with a vernier caliper. […]
The antitumor efficacy of the compounds was evaluated by TGI (%) or tumor proliferation rate T/C (%). […]
Statistical analysis included the mean and standard error of mean (SEM) of tumor volume at each time point in each group (See Table 14 for specific data). […] The comparison between groups was analyzed by T-test, and the comparison among three or more groups was analyzed by one-way ANOVA. […]

Series [3] has the same test system. As to the kind of experiment: In vivo pharmacodynamics, NCI-N87 subcutaneous xenograft (Assay Example 3). On the set-up: species or system mouse. To be noted: 0.8 mg/kg, compared with the vehicle control group. The protocol: as §1
Animals of the assay: female BALB/c nude mice, 6-8 weeks old, weighted 18-22 grams; supplier: Shanghai Ling Chang Biotechnology Co., Ltd.
Human gastric cancer NCI-N87 cells were cultured in monolayer in vitro. The culture conditions were RPMI-1640 medium plus 10% fetal bovine serum, 100 U/mL penicillin, 100 U/mL streptomycin and 2 mM glutamine, 37° C., 5% CO2. The passaging was performed by the conventional digestion with trypsin-EDTA twice a week. When the cell saturation was 80%-90%, the cells were collected, counted and inoculated.
0.2 mL (10×10^6) of NCI-N87 cells (PBS+Matrigel, 1:1) were inoculated subcutaneously on the right back of each nude mouse. When the average tumor volume reached 158 mm^3, administration to each group was started.
The assay compounds were formulated into 0.04 mg/mL and 0.08 mg/mL clear solution in the solvents of 10% NMP (N-methylpyrrolidone)+10% ethylene glycol stearate+80% water.
The assay index was to investigate whether tumor growth is inhibited, delayed or cured. Tumor diameter was measured twice a week with a vernier caliper. The calculation formula of tumor volume was: V=0.5a×b^2, wherein a and b represent the long and short diameters of tumor, respectively.
The antitumor efficacy of the compounds was evaluated by TGI (%) or tumor proliferation rate T/C (%). TGI (%) reflects tumor growth inhibition rate. […]
Statistical analysis included mean and standard error of mean (SEM) of tumor volume at each time point in each group (See Table 13 for specific data). […] The comparison between groups was analyzed by T-test, and the comparison among three or more groups was analyzed by one-way ANOVA. […]

In series [4] the test system is subcutaneous xenograft tumor of human esophageal carcinoma OE21 cells. The experiment in a line: In vivo pharmacodynamics, OE21 subcutaneous xenograft (Assay Example 5). On the set-up: species or system mouse. The procedure:
Purpose of the assay: in vivo efficacy of the assay compound on subcutaneous xenograft tumor of human esophageal carcinoma OE21 cells in a BALB/c nude mouse model was evaluated.
Animals of the assay: female BALB/c nude mice, 6-8 weeks old, weighted 17-23 grams; supplier: shanghai sippr bk laboratory animals Ltd.
Human esophageal carcinoma OE21 cells were cultured in monolayer in vitro. The culture conditions were RPMI-1640 medium plus 10% fetal bovine serum, 100 U/mL penicillin, 100 U/mL streptomycin and 2 mM glutamine, 37° C., 5% CO2. The passaging was performed by conventional digestion with trypsin-EDTA twice a week. When the cell saturation was 80%-90%, the cells were collected, counted and inoculated.
0.1 ml […] OE21 cells (PBS) were inoculated subcutaneously on the right back of each mouse. When the average tumor volume reached 112 mm^3, administration to each group was started.
The assay compound was formulated into a 0.15 mg/mL to 0.3 mg/mL clear or suspension solution in the solvents of 10% NMP+10% ethylene glycol stearate+80% water.
The assay index was to investigate whether tumor growth is inhibited, delayed or cured. Tumor diameter was measured twice a week with vernier caliper. The calculation formula of tumor volume was: V=0.5a×b^2, wherein a and b represent the long and short diameters of tumor, respectively.
The antitumor efficacy of the compounds was evaluated by TGI (%) or relative tumor proliferation rate T/C (%). TGI (%) reflects the tumor growth inhibition rate. TGI (%) was calculated as follows: TGI (%)=[(1−average tumor volume at the end of administration for a certain treatment group−average tumor volume at the beginning of administration for this treatment group))/(average tumor volume at the end of treatment for a vehicle control group−average tumor volume at the beginning of administration for this vehicle control group)]×100%.
Relative tumor proliferation rate T/C (%): the calculation formula was as follows: T/C (%)=average tumor volume at the end of administration for a certain treatment group/average tumor volume at the end of treatment for the vehicle control group×100%.
Statistical analysis included the mean and standard error of mean (SEM) of tumor volume at each time point in each group. One-way ANOVA was used for comparison among three or more groups. […] SPSS 17.0 was used for all data analysis. p<0.05 was considered a significant difference.

The target in series [5] is T1, CYP1A2 (Homo sapiens, UniProt P05177).
T1 construct: in the assay of CYP enzyme activity in human liver microsome; from tissue; host or cells: human liver microsome
T1 sequence (P05177 1-516): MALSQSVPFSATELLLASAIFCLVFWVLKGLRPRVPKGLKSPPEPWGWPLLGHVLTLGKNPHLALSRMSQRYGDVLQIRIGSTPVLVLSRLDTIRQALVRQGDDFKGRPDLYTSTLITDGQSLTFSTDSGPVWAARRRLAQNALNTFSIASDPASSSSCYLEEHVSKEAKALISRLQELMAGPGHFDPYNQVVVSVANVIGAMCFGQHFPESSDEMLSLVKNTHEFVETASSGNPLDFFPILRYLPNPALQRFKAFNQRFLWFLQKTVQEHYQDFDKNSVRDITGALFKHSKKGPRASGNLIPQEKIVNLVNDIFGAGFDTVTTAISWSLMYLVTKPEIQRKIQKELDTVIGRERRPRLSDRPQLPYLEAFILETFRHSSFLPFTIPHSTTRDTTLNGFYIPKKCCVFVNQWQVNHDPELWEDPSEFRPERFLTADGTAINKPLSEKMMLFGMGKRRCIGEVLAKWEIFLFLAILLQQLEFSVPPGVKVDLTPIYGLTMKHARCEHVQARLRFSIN
As to the kind of experiment: Inhibition of CYP enzyme activity in human liver microsome, CYP1A2. The following applies: human liver microsome. It counts as in vitro ADME. The text has this:
(§2) The results of the compound disclosed herein and the reference compound Poziotinib in the assay of CYP enzyme activity in human liver microsome were shown in the following table (Table 17).

In series [6] the target is T2, CYP3A4 (Homo sapiens, UniProt P08684).
T2 construct: in the assay of CYP enzyme activity in human liver microsome; from tissue; host or cells: human liver microsome
As to the kind of experiment: Inhibition of CYP enzyme activity in human liver microsome, CYP3A4. In kind it is in vitro ADME.
Excerpt: as §2

Molecules are shown by their SMILES.

T2 sequence (P08684 whole entry): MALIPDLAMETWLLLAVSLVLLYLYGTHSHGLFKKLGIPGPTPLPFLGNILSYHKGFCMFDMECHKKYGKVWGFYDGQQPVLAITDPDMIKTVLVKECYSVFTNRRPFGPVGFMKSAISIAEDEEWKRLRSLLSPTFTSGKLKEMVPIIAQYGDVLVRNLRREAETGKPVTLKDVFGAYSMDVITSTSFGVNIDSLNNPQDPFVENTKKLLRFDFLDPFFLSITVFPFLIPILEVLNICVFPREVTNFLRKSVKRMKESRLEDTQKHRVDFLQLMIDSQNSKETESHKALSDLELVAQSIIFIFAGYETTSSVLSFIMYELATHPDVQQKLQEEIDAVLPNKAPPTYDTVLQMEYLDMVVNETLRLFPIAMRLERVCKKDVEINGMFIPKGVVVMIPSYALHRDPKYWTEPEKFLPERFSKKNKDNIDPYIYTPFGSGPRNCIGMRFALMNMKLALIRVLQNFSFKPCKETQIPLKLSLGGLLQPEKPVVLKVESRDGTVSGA

`C=CC(=O)N1[C@@H]2CC[C@H]1C[C@H](Nc1cc3c(Nc4ccc(Cl)c(Cl)c4F)ncnc3cc1OC)C2.O=C(O)/C=C\C(=O)O`: the Total impurity content in series [1] (40° C., 75% relative humidity, open, 1 month) worked out at 1.62%; in series [1] (40° C., 75% relative humidity, open, 2 months), 1.52%; in series [1] (40° C., 75% relative humidity, open, 3 months) it was 1.52%; in series [1] (40° C., 75% relative humidity, open, 10 days) it was 1.64%; in series [1] (60° C., 75% relative humidity, open, 1 month), 1.62%; in series [1] (60° C., 75% relative humidity, open, 10 days), 1.63%. For the same compound, the Total impurity content in series [1] (High humidity (25° C./92.5% relative humidity, open), 5 days) came to 1.65%; in series [1] (High humidity (25° C./92.5% relative humidity, open), 10 days) it was 1.65%; in series [1] (High temperature (60° C., open), 5 days) it was 1.64%; in series [1] (High temperature (60° C., open), 10 days), 1.64%; in series [1] (Initial, 0 day) it was 1.64%; in series [1] (Light irradiation (1.2 × 10^6 Lux · hr/near ultraviolet 200 w · hr/m^2, open), 10 days), 1.66%. The Total impurity content in series [1] (Protected from light, 10 days) amounted to 1.64%. Further, in series [1] (conclusion over all conditions), the “solid stability (in words)” value is listed as “good stability”.
Take `C=CC(=O)N1CCC(Nc2cc3c(Nc4ccc(F)c(Cl)c4)ncnc3cc2OC)CC1` [Control compound 2, reference compound]: the “tumor inhibitory effect (in words)” value in series [2] is recorded as “not significant”.
`C=CC(=O)N1CCC(Oc2cc3c(Nc4ccc(Cl)c(Cl)c4F)ncnc3cc2OC)CC1` [Poziotinib, reference compound]: the “tumor inhibitory effect (in words)” value is on record as “significant tumor inhibitory effect” in series [3] and “significant tumor inhibitory effect” in series [4] (2/1.5 mg/kg, compared with the vehicle control group). Besides, the “body weight and clinical signs (in words)” value in series [4] (2/1.5 mg/kg) was “varying degrees of body weight loss and dandruff”. Besides, the “Tumor volume (Day 21)” value in series [4] (2/1.5 mg/kg, Day 21, Mean + SEM) worked out at 57 ± 7 mm3. The “body weight loss of individual mice (administration discontinued)” value in series [4] (2/1.5 mg/kg, from the 6th and 7th day, 1 mouse, then 3 mice) was “more than 15%”. Moreover, the “effect on the body weight of mice (in words)” value in series [4] (discussion, high-dose group) was “the body weight loss of mice was significant”. In series [4] (mouse, in vivo), the “dark yellow urine, suggestion of toxicity (in words)” value is listed as “mice in the whole group had dark yellow urine”. In addition, the “inhibitory activity on CYP1A2 (in words)” value in series [5] is “no inhibitory activity”. The “inhibitory activity on CYP3A4 (in words)” value in series [6] is reported as “no inhibitory activity”.
